In series [1] the target is recombinant human P450 2D6 (Homo sapiens (Human), UniProt P10635). In words: Screening for P450 2D6 inhibition (fluorescent AMMC substrate). It is filed as in vitro ADME. As to conditions: recombinant human P450 CYP2D6, AMMC substrate, 30 min. On the procedure:
The assay rapidly screen for potential inhibitors of human P450 2D6 catalytic activity, by using recombinant human P450 2D6. The IC50 determination is performed in duplicate at eight concentrations.
Incubations were conducted in 96 well microtiter plates based on a method described by BD Biosciences. To the first well in each row, a NADPH regenerating system and test compound was added. In the second well and all remaining wells, NADPH regenerating system and acetonitrile (final concentration of 2%) was added. The final assay concentration of the NADPH regenerating system was 8.2 μM NADP^+, 0.41 mM glucose-6-phosphate, 0.41 mM magnesium chloride hexahydrate and 0.4 U/ml glucose-6-phosphate dehydrogenase and 0.01 mg/mL control insect cell membrane protein. The test compound solution was serially diluted 1:3 through the eighth wells.
The final concentration of the test compounds were in the range 100 μM to 45.7 nM in the eight rows. Wells 9 and 10 contained no test compound (only NADPH regenerating system and enzyme/substrate mix) and wells 11 and 12 were used as controls for background fluorescence (enzyme and substrate were added after the reaction was terminated). The plate was then pre-incubated at 37° C. for 10 min, and the reaction was initiated by the addition of pre-warmed enzyme/substrate mix. The assay concentration of the enzyme/substrate mix was 100 mM potassium phosphate, pH 7.4, 1.5 pmol recombinant human P450 CYP2D6 and 1.5 μM of the fluorescent substrate 3-[2-(N,N diethyl-N-methylamino)ethyl]-7-methoxy-4-methylcounnarin (AMMC). The assay was conducted in duplicate in a final volume of 200 μL per well. Reactions were terminated after 30 min by addition of a 4:1, acetonitrile:0.5 M Tris base solution. Quinidine was used as positive control, 0.5 μM as highest concentration. Fluorescence per well was measured using a fluorescence plate reader (excitation: 390 nm, emission: 460 nm). The IC50 values were calculated.

Series [2] concerns normal male Sprague Dawley rats. The series is described as follows: In vivo test in normal rats (serum PTH and calcium). The arrangement: species or system rat. Particulars: for PTH suppression / Suppression of Ca^2+: 1 mg/kg p.o., single dose, 2 hours after dosing, compared to vehicle-treated animals; for ED50: Rattus norvegicus, 2 h, oral single doses, blood two hours thereafter, normal rats, read-out: ED50 with respect to PTH suppression. As for the experimental part: Various compounds were administered to normal male Sprague Dawley rats in order to examine the pharmacological effect on serum levels of total calcium and parathyroid hormone (PTH). The experiments were performed by orally administering a single dose of the respective compounds as compared to vehicle-treated animals or animals treated with the competitor compound Cinacalcet.
As a standard, a group of six animals were treated orally with 1 mg/kg of compound as a 1% methylcellulose suspension and two hours thereafter, blood was obtained by retro-orbital bleeding under anaesthesia and the serum calcium and PTH levels were measured.
In some instances, rats were treated orally with various doses of a given compound in 1% methylcellulose (six rats/dose) and blood was obtained by retro-orbital bleeding two hours thereafter. Using the software GraphPad Prism® 5, ED50 values for Cinacalcet, Compound 1056, Compound 1186, and Compound 1190 with respect to PTH suppression were calculated to be 0.9 mg/kg, 0.1 mg/kg, 0.04 mg/kg, and 0.002 mg/kg, respectively.
For some compounds, rats were bled at several time-points after oral administration (six rats/time point), and suppression of serum PTH levels was observed over time.

Series [3] concerns rat 5/6 nephrectomy model. In words: In vivo test using the 5/6 nephrectomy model in rats (secondary hyperparathyroidism). As to conditions: 336 h, oral once daily for two weeks, 5/6 nephrectomized rats, read-out: ED50, PTH lowering effect. The text has this: The lowering effect of different compounds on serum PTH was examined in vivo in the rat 5/6 nephrectomy model which is a widely accepted animal model of secondary hyperparathyroidism.
Two-third of the rats' (Sprague Dawley, at least 8 weeks old) left kidney was surgically removed followed by removal of the right kidney one week later.
After disease initiation, blood was obtained by retro-orbital bleeding and urine was collected using metabolic cages. Serum PTH, calcium, phosphorus, albumin, creatinine, and BUN as well as urinary creatinine and albumin were measured. Rats were then stratified into different treatment groups (9-12 rats/group) based on the results obtained. One group of normal rats without surgery served as control (“control”) and one group of nephrectomized rats treated with vehicle (1% Methylcellulose) was used as another control (“5/6 NEPX”). All other groups were treated orally with test compound at various doses once daily for two weeks and the above mentioned parameters were monitored weekly.

Sequence of recombinant human P450 2D6 (P10635 whole entry): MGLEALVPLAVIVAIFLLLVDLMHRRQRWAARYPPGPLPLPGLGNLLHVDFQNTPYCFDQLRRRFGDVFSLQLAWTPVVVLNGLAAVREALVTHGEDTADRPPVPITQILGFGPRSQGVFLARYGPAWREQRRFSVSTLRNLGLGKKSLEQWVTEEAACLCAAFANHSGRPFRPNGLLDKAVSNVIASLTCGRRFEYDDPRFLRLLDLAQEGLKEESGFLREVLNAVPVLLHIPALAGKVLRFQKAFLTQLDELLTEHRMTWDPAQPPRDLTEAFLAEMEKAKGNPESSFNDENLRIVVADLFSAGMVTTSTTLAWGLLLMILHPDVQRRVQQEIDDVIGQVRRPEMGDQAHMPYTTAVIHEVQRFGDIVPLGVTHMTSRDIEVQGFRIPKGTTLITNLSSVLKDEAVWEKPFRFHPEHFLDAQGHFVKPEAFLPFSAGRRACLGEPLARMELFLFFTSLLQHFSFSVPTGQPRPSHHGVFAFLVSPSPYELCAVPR

For the molecule `C[C@@H](NCCCc1cccc(C(F)(F)F)c1)c1cccc2ccccc12` [Cinacalcet, reference compound], the IC50 in series [1] was determined as 0.05 µM. In series [2], the PTH suppression is listed as 48%, the “Suppression of Ca^2+” value was 5% and the ED50 stood at 0.9 mg/kg. Also, the ED50 in series [3] is ~20 mg/kg.
Turning to `C[C@@H](N[C@H]1CCC[C@H](c2ccc(C(=O)NCC(=O)O)cc2)C1)c1cccc2ccccc12` [Compound 1115, {4-[(1S,3S)-3-((R)-1-Naphthalen-1-yl-ethylamino)-cyclohexyl]-benzoylamino}-acetic acid], the half-maximal inhibitory concentration (IC50) in series [1] is 13 µM. Further, in series [2], the PTH suppression is recorded as 50% and the “Suppression of Ca^2+” value worked out at 3%.
As for `C[C@@H](NC1CCC(c2ccc(OCC(=O)O)cc2)C1)c1cccc2ccccc12` (stereo partly drawn) [Compound 1188, {4-[3-((R)-1-Naphthalen-1-yl-ethylamino)-cyclopentyl]-phenoxy}-acetic acid], in series [2], the PTH suppression came to 97% and the “Suppression of Ca^2+” value was 12%.
In the case of `C[C@@H](NC1CCCC(c2ccc(C(=O)O)cc2)C1)c1cccc2ccccc12` (stereo partly drawn) [Compound 1056, 4-[3-((R)-1-naphthalen-1-yl-ethylamino)-cyclohexyl]-benzoic acid], the concentration for half-maximal inhibition (IC50) in series [1] was determined as 10 µM. In addition, in series [2], the PTH suppression was 85%, the “Suppression of Ca^2+” value turned out to be 1% and the ED50 amounted to 0.1 mg/kg. In addition, the ED50 in series [3] was ~2 mg/kg.
In the same order, the values of `C[C@@H](N[C@H]1CC[C@@H](c2ccc(OCC(=O)O)cc2)C1)c1cccc2ccccc12` [Compound 1186, {4-[(1R,3S)-3-((R)-1-Naphthalen-1-yl-ethylamino)-cyclopentyl]-phenoxy}-acetic acid] are 50 µM, 98%, 6%, 0.04 mg/kg and ~0.3 mg/kg.
Regarding `C[C@@H](N[C@H]1CC[C@H](c2ccc(CCC(=O)O)cc2)C1)c1cccc2ccccc12.Cl` [Compound 1190, 3-{4-[(1S,3S)-3-((R)-1-Naphthalen-1-yl-ethylamino)-cyclopentyl]-phenyl}-propionic acid hydrochloride], the IC50 in series [1] came to 79 µM. In addition, in series [2], the PTH suppression came to 93%, the “Suppression of Ca^2+” value was determined as 18.5% and the ED50 stood at 0.002 mg/kg. The ED50 in series [3] is ~0.01 mg/kg.
On to `C[C@@H](N[C@H]1CCC[C@H](c2ccc(C(=O)N3CC(C(=O)O)C3)cc2)C1)c1cccc2ccccc12` [Compound 1142, 1-{4-[(1S,3S)-3-((R)-1-Naphthalen-1-yl-ethylamino)-cyclohexyl]-benzoyl}-azetidine-3-carboxylic acid], for which the IC50 in series [1] came out at 25 µM.
As to `C[C@@H](NC1CC[C@H](c2ccc(C(=O)O)cc2)C1)c1cccc2ccccc12` (stereo partly drawn) [Compound 1338, 4-[3-((R)-1-Naphthalen-1-yl-ethylamino)-cyclopentyl]-benzoic acid], the half-inhibitory concentration (IC50) in series [1] is 100 µM. Moreover, in series [2], the PTH suppression was 85% and the “Suppression of Ca^2+” value was 29%.
Taken in the same sequence, the figures for `C[C@@H](N[C@H]1CCC[C@H](c2ccc(C(=O)N3CCC(C(=O)O)CC3)cc2)C1)c1cccc2ccccc12` [Compound 1146, 1-{4-[(1S,3S)-3-((R)-1-Naphthalen-1-yl-ethylamino)-cyclohexyl]-benzoyl}-piperidine-4-carboxylic acid] were 16 µM, 84% and 0%.
Taken in the same sequence, the figures for `C[C@@H](N[C@H]1CCC[C@H](c2ccc(C(=O)NCCC(=O)O)cc2)C1)c1cccc2ccccc12.Cl` [Compound 1136, 3-{4-[(1S,3S)-3-((R)-1-Naphthalen-1-yl-ethylamino)-cyclohexyl]-benzoylamino}-propionic acid hydrochloride] were 10 µM, 61% and 7%.

As usually defined, the IC50 is the point on the concentration scale where inhibition reaches its midpoint. Usually ED50 stands for the dose at which the effect has come halfway, by size or by number of responders.

Values taken from patent US9487494B2, “Cyclic hydrocarbon compounds for the treatment of diseases” (LEO PHARMA A/S, priority 2007, dated 2016).
